According to patent publication US10155754B2, “Substituted 2-imino-1,3-thiazolidin-4-ones as N-arachidonoylethanolamine cellular uptake inhibitors” (UNIVERSITAT BERN, priority 2014, dated 2018):

system: AEA cellular uptake (U937 cells); test: [3H]-AEA cellular uptake inhibition in U937 cells; type: cell-based; conditions: Homo sapiens, U-937, U937 cells, final 100 nM AEA with 0.5 nM [3H]-AEA, 15 min at 37° C.; read-out: AEA uptake IC50
Method: [^3H]-AEA Cellular Uptake
Screening for AEA cellular uptake inhibition was performed in a semi-automated procedure: Pipetting and washing steps were performed by a Biomek3000 laboratory workstation. First, required amounts of U937 cells were centrifuged at 100×g for 5 min and resuspended in RPMI (37° C.) to a final concentration of 2×10^6 cells/mL. Then, 250 μL of cell suspension (0.5×10^6 cells per sample) were transferred into AquaSil™ silanized glass vials (Chromacol 1.1-MTV) in 96-well format. After addition of 5 μL vehicle (DMSO) or compounds the cells were incubated at 37° C. for 15 min. As positive controls OMDM-2 and UCM707 were used at 10 μM in each run. The ETI-T compounds were measured at up to 7 concentrations in triplicates from 100 pM-100 μM. After pre-incubation, a mixture of 0.5 nM [ethanolamine-1-^3H]-AEA, (60 Ci/mmol) and 99.5 nM of cold AEA (final 100 nM) was added and samples were incubated at 37° C. for another 15 min. The reaction was stopped by rapid filtration over UniFilter-96 GF/C filters (PerkinElmer) pre-soaked with PBS 0.25% BSA. Cells were washed three times with 100 μL ice-cold PBS buffer containing 1% fatty acid free BSA. After drying, 45 μL MicroScint 20 scintillation cocktail (PerkinElmer, Waltham, Mass., US) was added to the wells and the plate was sealed. Radioactivity was measured by liquid scintillation counting on a PerkinElmer Wallac Trilux MicroBeta 1450 during 2 min. Non-specific binding of [^3H]AEA (100 nM) to the glass vials was never higher than 10%. IC50 values were calculated by GraphPad® by non-linear regression using the built-in log(inhibitor) vs. response-variable slope (four parameters) function.

`Cc1ccc(N2C(=O)/C(=C/c3ccc4[nH]ccc4c3)S/C2=N\c2ccc(F)cc2)cc1` [03_B_A, (2Z,5Z)-5-((1H-indol-5-yl)methylene)-2-(4-fluorophenylimino)-3-p-tolylthiazolidin-4-one] and `COc1ccc(/N=C2\S/C(=C\c3ccc4[nH]ccc4c3)C(=O)N2c2ccccc2)cc1` [03_F_N, (2Z,5Z)-5-((1H-indol-5-yl)methylene)-2-(4-methoxyphenylimino)-3-phenylthiazolidin-4-one] are within 1.5-fold of each other in IC50: 0.76 µM for the first, 1.07 µM for the second.

`O=C1/C(=C/c2ccc3[nH]ccc3c2)S/C(=N\Cc2ccccc2)N1CCCc1ccccc1` [03_C_K, (2Z,5Z)-5-((1H-indol-5-yl)methylene)-2-(benzylimino)-3-(3-phenylpropyl)thiazolidin-4-one] and `O=C1/C(=C/c2ccc3[nH]ccc3c2)S/C(=N\Cc2ccccc2)N1CCc1ccccc1` [03_C_O, (2Z,5Z)-5-((1H-indol-5-yl)methylene)-2-(benzylimino)-3-phenethylthiazolidin-4-one] are within 1.5-fold of each other in IC50: 0.564 µM for the first, 0.727 µM for the second.

`O=C1/C(=C/c2ccc3[nH]cnc3c2)S/C(=N\c2ccccc2)N1Cc1ccccc1` [03_N_C, (2Z,5Z)-5-((1H-benzo[d]imidazol-5-yl)methylene)-3-benzyl-2-(phenylimino)thiazolidin-4-one] and `O=C1/C(=C/c2ccc3[nH]cnc3c2)S/C(=N\c2ccccc2)N1CCCc1ccccc1` [04_N_K, (2Z,5Z)-5-((1H-benzo[d]imidazol-5-yl)methylene)-2-(phenylimino)-3-(3-phenylpropyl)thiazolidin-4-one] are within 1.5-fold of each other in IC50: 0.61 µM for the first, 0.727 µM for the second.

`O=C1/C(=C/c2ccc3[nH]ccc3c2)S/C(=N\c2ccccc2)N1CCCc1ccccc1` [03_N_K, (2Z,5Z)-5-((1H-indol-5-yl)methylene)-2-(phenylimino)-3-(3-phenylpropyl)thiazolidin-4-one] and `O=C1/C(=C/c2ccc3[nH]ccc3c2)S/C(=N\CCc2ccccc2)N1c1ccccc1` [03_U_N, (2Z,5Z)-5-((1H-indol-5-yl)methylene)-2-(phenethylimino)-3-phenylthiazolidin-4-one] are within 1.5-fold of each other in IC50: 0.564 µM for the first, 0.509 µM for the second.

First: O=C1/C(=C/c2ccc3[nH]ccc3c2)S/C(=N\c2ccccc2)N1Cc1ccco1 [03_N_M, (2Z,5Z)-5-((1H-indol-5-yl)methylene)-3-((furan-2-yl)methyl)-2-(phenylimino)thiazolidin-4-one]
Second: CCCCN1C(=O)/C(=C/c2ccc3[nH]cnc3c2)S/C1=N\c1ccccc1 [04_N_G, (2Z,5Z)-5-((1H-benzo[d]imidazol-5-yl)methylene)-3-butyl-2-(phenylimino)thiazolidin-4-one]
The IC50 of the first is 1.6-fold higher: 0.879 µM for the first, 0.557 µM for the second. The second is the more potent here.

Going from `CCCCCCCCCCCCN1C(=O)/C(=C/c2ccc(CO)cc2)S/C1=N\c1ccc(C)cc1` [04_A_V, (2Z,5Z)-5-(4-(hydroxymethyl)benzylidene)-2-(p-tolylimino)-3-dodecylthiazolidin-4-one] to `CCCCN1C(=O)/C(=C/c2ccc3[nH]cnc3c2)S/C1=N\Cc1ccccc1` [04_C_G, (2Z,5Z)-5-((1H-benzo[d]imidazol-5-yl)methylene)-2-(benzylimino)-3-butylthiazolidin-4-one], the IC50 falls from > 10 µM to 1.06 µM.

`CC(C)CN1C(=O)/C(=C/c2ccc3[nH]cnc3c2)S/C1=N\c1ccc(F)cc1` [04_B_X, (2Z,5Z)-5-((1H-benzo[d]imidazol-5-yl)methylene)-2-(4-fluorophenylimino)-3-isobutylthiazolidin-4-one] and `O=C1/C(=C/c2ccc3[nH]cnc3c2)S/C(=N\Cc2ccccc2)N1c1ccc(F)cc1` [04_C_B, (2Z,5Z)-5-((1H-benzo[d]imidazol-5-yl)methylene)-2-(benzylimino)-3-(4-fluorophenyl)thiazolidin-4-one] are within 1.5-fold of each other in IC50: 0.578 µM for the first, 0.861 µM for the second.

`O=C1/C(=C/c2ccc3[nH]cnc3c2)S/C(=N\Cc2ccccc2)N1CCCc1ccccc1` [04_C_K, (2Z,5Z)-5-((1H-benzo[d]imidazol-5-yl)methylene)-2-(benzylimino)-3-(3-phenylpropyl)thiazolidin-4-one] and `O=C1/C(=C/c2ccc3[nH]cnc3c2)S/C(=N\Cc2ccccc2)N1CCc1ccccc1` [04_C_O, (2Z,5Z)-5-((1H-benzo[d]imidazol-5-yl)methylene)-2-(benzylimino)-3-phenethylthiazolidin-4-one] are within 1.5-fold of each other in IC50: 1.14 µM for the first, 1.12 µM for the second.

Compared with `Cc1ccc(/N=C2\S/C(=C\c3ccc4[nH]cnc4c3)C(=O)N2c2ccccc2)nc1` [04_D_N, (2Z,5Z)-5-((1H-benzo[d]imidazol-5-yl)methylene)-2-(5-methylpyridin-2-ylimino)-3-phenylthiazolidin-4-one], `O=C1/C(=C/c2ccc3[nH]cnc3c2)S/C(=N\Cc2cccnc2)N1c1ccccc1` [04_S_N, (2Z,5Z)-2-((pyridin-3-yl)methylimino)-5-((1H-benzo[d]imidazol-5-yl)methylene)-3-phenylthiazolidin-4-one] is 1.8-fold lower in IC50: 1.59 µM for the first, 0.878 µM for the second.

For `O=C1/C(=C/c2ccc3[nH]cnc3c2)S/C(=N\Cc2ccc(F)cc2)N1c1ccccc1` [04_P_N, (2Z,5Z)-5-((1H-benzo[d]imidazol-5-yl)methylene)-2-(4-fluorobenzylimino)-3-phenylthiazolidin-4-one], the IC50 was 1.02 µM.

same assay, conditions: Homo sapiens, U-937, U937 cells, final 100 nM AEA with 0.5 nM [3H]-AEA, 15 min at 37° C.; read-out: AEA uptake inhibition IC50

`O=C1/C(=C/c2ccc3cc[nH]c3c2)S/C(=N\c2ccccc2)N1c1ccccc1` and `O=C1/C(=C/c2ccc3occc3c2)S/C(=N\c2ccccc2)N1c1ccccc1` are within 1.5-fold of each other in IC50: 2.3 µM for the first, 3.26 µM for the second.

Compared with `O=C1/C(=C/c2ccc3nccnc3c2)S/C(=N\c2ccccc2)N1c1ccccc1`, `O=C1/C(=C/c2ccc3scnc3c2)S/C(=N\c2ccccc2)N1c1ccccc1` is 1.7-fold higher in IC50: 7.1 µM for the first, 11.8 µM for the second. The first is the more potent here.

Going from `COc1ccc(/C=C2\S/C(=N\c3ccccc3)N(c3ccccc3)C2=O)cn1` to `COc1cc(/C=C2\S/C(=N\c3ccccc3)N(c3ccccc3)C2=O)ccn1`, the IC50 falls from 15.6 µM to 5.5 µM (2.8-fold). The second is the more potent here.

`COc1cncc(/C=C2\S/C(=N\c3ccccc3)N(c3ccccc3)C2=O)c1` and `COc1ccc(/C=C2\S/C(=N\c3ccccc3)N(c3ccccc3)C2=O)nc1` are within 1.5-fold of each other in IC50: 6.7 µM for the first, 6.6 µM for the second.

`COc1ccnc(/C=C2\S/C(=N\c3ccccc3)N(c3ccccc3)C2=O)c1` and `COc1ccc(/C=C2\S/C(=N\c3ccccc3)N(c3ccccc3)C2=O)cc1` are within 1.5-fold of each other in IC50: 1.6 µM for the first, 2.12 µM for the second.

First: O=C1/C(=C/c2ccccc2)S/C(=N\c2ccccc2)N1c1ccccc1
Second: O=C1/C(=C/c2ccccc2)S/C(=N\c2ccccc2)N1Cc1ccccc1
The IC50 of the first is 1.9-fold lower: 2.78 µM for the first, 5.42 µM for the second. The first is the more potent here.

Going from `O=C1/C(=C/c2ccc3c(c2)OCO3)S/C(=N\c2ccccc2)N1c1ccccc1` to `O=C1/C(=C/c2ccc3[nH]c(=O)oc3c2)S/C(=N\c2ccccc2)N1c1ccccc1`, the IC50 rises from 3.36 µM to 5.56 µM (1.7-fold).

First: CSc1ccc(/C=C2\S/C(=N\c3ccccc3)N(c3ccccc3)C2=O)cc1
Second: Cc1ccc(/N=C2\S/C(=C\c3ccccc3)C(=O)N2c2ccccc2)cc1
The IC50 of the first is 3.1-fold higher: 9.94 µM for the first, 3.24 µM for the second.

First: O=C1/C(=C/c2ccc3sccc3c2)S/C(=N\c2ccccc2)N1c1ccccc1
Second: COc1ccc(/N=C2\S/C(=C\c3ccccc3)C(=O)N2c2ccccc2)cc1
The IC50 of the first is 2-fold higher: 4.63 µM for the first, 2.34 µM for the second.

Compared with `COc1ccc(/C=C2\S/C(=N\c3ccc(C)cc3)N(c3ccccc3)C2=O)cc1`, `COc1ccc(/C=C2\S/C(=N\c3ccc(OC)cc3)N(c3ccccc3)C2=O)cc1` is 2.9-fold lower in IC50: 5.1 µM for the first, 1.74 µM for the second.

Compared with `COc1ccc(/C=C2\S/C(=N\Cc3ccccc3)N(c3ccccc3)C2=O)cc1`, `COc1ccc(/C=C2\S/C(=N\c3ccccc3)N(Cc3ccccc3)C2=O)cc1` is 5.2-fold higher in IC50: 0.44 µM for the first, 2.29 µM for the second.

`COc1ccc(/C=C2\S/C(=N\c3ccc(C)cn3)N(c3ccccc3)C2=O)cc1` and `Cc1ccc(/N=C2\S/C(=C\c3ccc4[nH]ccc4c3)C(=O)N2c2ccccc2)nc1` are within 1.5-fold of each other in IC50: 2.8 µM for the first, 2.73 µM for the second.

First: C/N=C1\S/C(=C\c2ccc(OC)cc2)C(=O)N1c1ccccc1
Second: C/N=C1\S/C(=C\c2ccc3[nH]ccc3c2)C(=O)N1c1ccccc1
The IC50 of the first is 2.4-fold lower: 6.92 µM for the first, 16.6 µM for the second. The first is the more potent here.

`O=C1/C(=C/c2ccc3[nH]cnc3c2)S/C(=N\Cc2ccccc2)N1c1ccccc1` and `O=C1/C(=C/c2ccc3[nH]cnc3c2)S/C(=N\c2ccccc2)N1Cc1ccco1` are within 1.5-fold of each other in IC50: 2.14 µM for the first, 1.84 µM for the second.

`O=C1/C(=C/c2ccc3[nH]ccc3c2)S/C(=N\c2ccccc2)N1Cc1ccccc1` and `CCCCN1C(=O)/C(=C/c2ccc3[nH]ccc3c2)S/C1=N\c1ccccc1` are within 1.5-fold of each other in IC50: 0.61 µM for the first, 0.677 µM for the second.

Compared with `CCCCN1C(=O)/C(=C/c2ccccc2)S/C1=N\c1ccccc1`, `CCCCN1C(=O)/C(=C/c2ccc(OC)cc2)S/C1=N\c1ccccc1` is 1.8-fold lower in IC50: 4.15 µM for the first, 2.27 µM for the second.

Compared with `O=C1/C(=C/c2ccccc2)S/C(=N\c2ccccc2)N1Cc1ccco1`, `COc1ccc(/C=C2\S/C(=N\c3ccccc3)N(Cc3ccco3)C2=O)cc1` is 1.8-fold higher in IC50: 1.81 µM for the first, 3.18 µM for the second. The first is the more potent here.

Compound `COc1ccc(/C=C2\S/C(=N\c3ccccc3)N(c3ccc(OC)cc3)C2=O)cc1` has an IC50 of 7.18 µM.

same assay, conditions: U937 cells, final 100 nM AEA with 0.5 nM [3H]-AEA, 15 min at 37° C.; read-out: AEA uptake IC50

`Cc1ccc(N2C(=O)/C(=C/c3ccc4[nH]cnc4c3)S/C2=N\c2ccc(F)cc2)cc1` [04_B_A, (2Z,5Z)-5-((1H-benzo[d]imidazol-5-yl)methylene)-2-(4-fluorophenylimino)-3-p-tolylthiazolidin-4-one] showed an IC50 of 0.527 µM.
